The source of these data is BindingDB's records for doi:10.1016/s0960-894x(99)00005-0 (Smithkline Beecham Pharmaceuticals, 1999).

The experiment can be described thus: Inhibitory activity against varicella zoster virus (VZV) protease.
In the case of `Cc1csc2nc([C@H](C)NC(=O)/C=C/C(=O)c3ccccc3[N+](=O)[O-])oc(=O)c12` [(E)-4-(2-Nitro-phenyl)-4-oxo-but-2-enoic acid [(S)-1-(5-methyl-4-oxo-4H-thieno[2,3-d][1,3]oxazin-2-yl)-ethyl]-amide], the IC50 (usually the concentration that gives 50% inhibition) was 0.84 µM. In other words, the sub-micromolar range.
As for `Cc1csc2nc([C@H](C)NC(=O)/C=C/C(=O)c3cccc(C#N)c3)oc(=O)c12` [(E)-4-(3-Cyano-phenyl)-4-oxo-but-2-enoic acid [(S)-1-(5-methyl-4-oxo-4H-thieno[2,3-d][1,3]oxazin-2-yl)-ethyl]-amide], the figure is 0.41 µM; as for `COc1cccc(C(=O)/C=C/C(=O)N[C@@H](C)c2nc3scc(C)c3c(=O)o2)c1` [(E)-4-(3-Methoxy-phenyl)-4-oxo-but-2-enoic acid [(S)-1-(5-methyl-4-oxo-4H-thieno[2,3-d][1,3]oxazin-2-yl)-ethyl]-amide], 0.34 µM.
As for `CCOc1ccc(C(=O)/C=C/C(=O)N[C@@H](C)c2nc3scc(C)c3c(=O)o2)cc1` [(E)-4-(4-Ethoxy-phenyl)-4-oxo-but-2-enoic acid [(S)-1-(5-methyl-4-oxo-4H-thieno[2,3-d][1,3]oxazin-2-yl)-ethyl]-amide], the figure is 1.6 µM; as for `Cc1csc2nc([C@H](C)NC(=O)/C=C/C(=O)c3cccs3)oc(=O)c12` [(E)-4-Oxo-4-thiophen-2-yl-but-2-enoic acid [(S)-1-(5-methyl-4-oxo-4H-thieno[2,3-d][1,3]oxazin-2-yl)-ethyl]-amide], 0.65 µM.
For `CC(=O)C=CC(=O)N[C@@H](C)c1nc2scc(C)c2c(=O)o1` [(E)-4-Oxo-pent-2-enoic acid [(S)-1-(5-methyl-4-oxo-4H-thieno[2,3-d][1,3]oxazin-2-yl)-ethyl]-amide], 1.36 µM corresponded to half-maximal inhibition (IC50).
As for `Cc1csc2nc([C@H](C)NC(=O)CCC(=O)c3cccs3)oc(=O)c12` [N-[(S)-1-(5-Methyl-4-oxo-4H-thieno[2,3-d][1,3]oxazin-2-yl)-ethyl]-4-oxo-4-thiophen-2-yl-butyramide], the figure is 0.82 µM.
